US5652363A, “Pyrido-1,4-oxazinylalkyl-benzamide derivatives” (C.D. Searle & Co., priority 1996, dated 1997)

Biological target: T1, PAF receptor (Homo sapiens, UniProt P25105)
T1 construct: tissue Lifesource, Inc. (Glenview, Ill.); host or cells: human platelets (membrane preparation)
Assay: Human Platelet Receptor Binding Assay ([3H]PAF binding to human platelet membrane preparation)
Details: inhibition of specific binding of 0.75 nM [3H]PAF to human platelet membranes, 30 minutes at 24° C.; read-out: PAF Inhibitor Activity Human Platelet Receptor Assay
Description: Human Platelet Receptor Binding Assay
Compounds of the invention were evaluated for their ability to inhibit specific binding of [^3 H]PAF to human platelet membrane preparation. Human packed platelets were obtained from Lifesource, Inc. (Glenview, Ill.) and washed 3 times with 10 mM Trizma pH 7.0, 2 mM EDTA (dipotassium salt), 150 mM KCl and then once with 10 mM Trizma 7.4, 20 mM CaCl2. The platelets were broken by freezing in a dry ice-ethanol bath, followed by thawing in 24° C. water baths. The preparation was centrifuged (40,000×g, 20 minutes, 4° C.) and the pellet suspended in 10 mM Trizma 7.4, 20 mM CaCl2, 5 mg/ml human albumin. Protein concentration in the platelet membrane preparation was determined by the Lowry method [O. H. Lowry et al., J. Biol. Chem., 193, 265-275 (1951)]. Aliquots of the membrane preparation were stored at -70° C. Each preparation was characterized for PAF receptor number and dissociation constant (Kd). In binding assays 5 μl of test compound, solubilized in DMSO, was added to polypropylene tubes along with 0.75 nM [^3 H]PAF and 200 mcl [0.075 nM] of membranes and 95 μl 10 mM Trizma 7.4, 20 mM CaCl2, 5 mg/ml human albumin-Tubes were incubated for 30 minutes at 24° C. The incubation was terminated by adding 4 ml of ice-cold 10 mM Trizma pH 7.4, 20 mM CaCl2 and 20 mg/ml BSA prior to vacuum filtration using Whatman GF/C filters. Filters were prepared and counted in a scintillation counter. All DPM values (disintergrations per minute) were corrected for background and isotope decay. Triplicate determinations for single doses were averaged. The amount of non-specific binding was subtracted from all dose averages, giving an amount of specific binding in all cases. The IC50 values for the compounds of the invention were determined by the Allfit program using percent displacement data. (Allfit is a `basic` computer program for simultaneous curve fitting of a family of signoidal dose-response curves using the four parameter logistic equation.) Results are shown in Table I. In Table 1 "c-pent" means cyclopentyl; "c-hex" means cyclohexyl; "i-Pr" means isopropyl; "Me" means methyl; and "OMe" means methoxy.

T1 sequence (P25105 whole entry): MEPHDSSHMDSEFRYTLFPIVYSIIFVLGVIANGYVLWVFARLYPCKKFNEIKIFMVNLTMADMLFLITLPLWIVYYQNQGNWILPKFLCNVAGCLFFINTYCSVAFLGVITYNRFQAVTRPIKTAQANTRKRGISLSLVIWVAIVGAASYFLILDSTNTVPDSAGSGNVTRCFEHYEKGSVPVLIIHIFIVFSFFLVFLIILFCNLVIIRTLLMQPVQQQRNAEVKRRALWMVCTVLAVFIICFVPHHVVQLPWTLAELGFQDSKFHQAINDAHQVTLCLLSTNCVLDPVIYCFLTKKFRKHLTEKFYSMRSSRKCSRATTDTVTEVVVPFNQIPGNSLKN

| IC50 [nM] | Structure (SMILES) |
| --- | --- |
| 163 | COc1cc(CN2CCOc3cnccc32)ccc1C(=O)N(C1CCCC1)[C@@H]1C[C@H](C)C[C@H](C)C1 [Example 9] |
| 219 | Cc1cc(C(=O)N(C2CCCCC2)C2CCCC2)ccc1CN1CCOc2cnccc21 [Example 10, N-cyclohexyl-N-cyclopentyl-4-[(2,3-dihydro-1H-pyrido[3,4-b][1,4]oxazin-1-yl)methyl]-3-methyl-benzamide] |
| 2 | CC(C)N(C(=O)c1ccc(CN2CCOc3cnccc32)c(Br)c1)C1CCCCC1 [Example 11, 3-bromo-N-cyclohexyl-4-[(2,3-dihydro-1H-pyrido[3,4-b]-[1,4]oxazin-1-yl)methyl]-N-(1-methylethyl)benzamide] |
| 505 | COc1cc(C(=O)N(C(C)C)C2CCCCC2)ccc1CN1C(=O)COc2ncccc21 [Example 17, N-cyclohexyl-4-[{2,3-dihydro-2-oxo-1H-pyrido(2,3-b)(1,4)oxazin-1-yl}methyl]-3-methoxy-N-(1-methylethyl)benzamide] |
